Assay results reported in PMC8443859 (Journal of Traditional and Complementary Medicine, 2021).
*1 amine or outer side, *2 acyl side, *3 side chain or, on linkers, in order; H or OH if unused. Where a SMILES comes first, the peptide text is derived from it. Bridges are numbered along the chain shown (N, C = ends). Roman numbers before positions name the chains, in order. [ ]: non-standard residue; d: D form. Actinocin(9to1) = Cc1c2oc3c(C)ccc(C(=O)[*:1])c3nc-2c(C(=O)[*:2])c(N)c1=O; NMeV = CN[C@H](C(=O)O)C(C)C; Sar = CNCC(=O)O

Tests used:
[1] = molecular target: S1 domain of SARS-CoV-2 spike protein (Severe acute respiratory syndrome coronavirus 2, UniProt P0DTC2); test: biochemical; format: binding
[2] = tested on: interaction between viral spike protein and ACE2 protein; conditions: cited from earlier work
[3] = tested on: lentivirus particles pseudotyped (Vpp) with SARS-CoV-2 Spike protein; test: organism not typed; format: cell-based; conditions: for inhibition at 10 µM: HEK-293T, read-out: inhibition of SARS-CoV-2 viral infection efficacy
293T cells = test: Cell viability, MTT assay; format: cell-based; conditions: Homo sapiens, HEK-293T, 48 h, read-out: IC50 cell viability
adenovirus = conditions: 293 cells; cited from earlier work
[4] = annotation, ref TDEC website; cited from earlier work
measles virus = conditions: Vero cells; cited from earlier work

Row | Compound | -TΔS [1] | n (reaction stoichiometry) [1] | ΔG [1] | ΔH [1] | ΔS [1] | Kd [1] | inhibitory activity against spike-ACE2 interaction [2] | inhibition at 10 µM [3] | IC50 (293T cells) | c (c value) [1] | inhibition of adenovirus infection (adenovirus) | inhibition of SARS-CoV-2 viral infection efficacy ([3]; 10 µM) | Water solubility, Solubility category [4] | inhibition of measles virus replication and RNA synthesis (measles virus)
1 | O=C1/C(=c2\c3ccccc3n3c(=O)c4ccccc4nc23)Nc2ccccc21 [Candidine] | 17.35 kcal/mol | 0.115 | -6.554 kcal/mol | -23.9 kcal/mol | −243.4 J/mol·K | 15700 nM |  |  |  |  |  |  |  | 
2 | CC1(C)[C@@H](O[C@H]2O[C@H](C(=O)O)[C@@H](O)[C@H](O)[C@H]2O[C@@H]2O[C@H](C(=O)O)[C@@H](O)[C@H](O)[C@H]2O)CC[C@]2(C)[C@H]3C(=O)C=C4[C@@H]5C[C@@](C)(C(=O)O)CC[C@]5(C)CC[C@@]4(C)[C@]3(C)CC[C@@H]12 [Glycyrrhizic acid] |  |  |  |  |  |  | inhibitory activity against the interaction between viral spike protein and ACE2 protein |  |  |  |  |  |  | 
3 | O=c1cc(-c2ccc(O)c(-c3c(O)cc(O)c4c(=O)cc(-c5ccc(O)cc5)oc34)c2)oc2cc(O)cc(O)c12 [Amentoflavone] | 12.3 kcal/mol | 2.731 |  | -19.63 kcal/mol |  | 4270 nM |  | 50 to 90% | > 100000 nM | 6.4 |  |  |  | 
4 | CC1=C(O)C(=O)C=C2C1=CC=C1[C@@]2(C)CC[C@@]2(C)[C@@H]3C[C@](C)(C(=O)O)CC[C@]3(C)CC[C@]12C [Celastrol] | -47.59 kcal/mol | 1.409 | -7.868 kcal/mol | 39.72 kcal/mol | 667.9 J/mol·K | 1710 nM |  | 50 to 90% | 987 nM | 8.2 |  |  |  | 
5 | O=C1C(C2(C3(C4=Nc5ccccc5C4=O)Nc4ccccc4C3=O)Nc3ccccc3C2=O)=Nc2ccccc21 (stereo not shown) [Cephalinone D] | -2.383 kcal/mol | 0.333 |  |  | 33.45 J/mol·K |  |  |  |  | 0.8 |  |  |  | 
6 | C[C@@H]1CC[C@@]2(OC1)O[C@H]1C[C@H]3[C@@H]4CC=C5C[C@@H](O[C@@H]6O[C@H](CO)[C@@H](O[C@@H]7O[C@@H](C)[C@H](O)[C@@H](O)[C@H]7O)[C@H](O)[C@H]6O[C@@H]6O[C@@H](C)[C@H](O)[C@@H](O)[C@H]6O)CC[C@]5(C)[C@H]4CC[C@]3(C)[C@H]1[C@@H]2C [Dioscin] |  | 5.488 | -8.635 kcal/mol |  | 110.6 J/mol·K | 468 nM |  |  | 1560 nM | 117.3 | inhibit the initial stage of adenovirus infection | more than 80% | Moderate | 
7 | Cc1c2oc3c(C)ccc(C(=O)N[C@@H]4C(=O)N[C@H](C(C)C)C(=O)N5CCC[C@H]5C(=O)N(C)CC(=O)N(C)[C@@H](C(C)C)C(=O)O[C@@H]4C)c3nc-2c(C(=O)N[C@@H]2C(=O)N[C@H](C(C)C)C(=O)N3CCC[C@H]3C(=O)N(C)CC(=O)N(C)[C@@H](C(C)C)C(=O)O[C@@H]2C)c(N)c1=O [Actinomycin D] (I: T[dV]P[Sar][NMeV] / II: T[dV]P[Sar][NMeV]; ester I:1-I:C, II:1-II:C; linker I:N-II:N via Actinocin(9to1)) |  |  |  |  |  |  |  |  |  |  |  |  |  | inhibit measles virus replication and RNA synthesis
